Assay results taken from patent publication US6337328B1, “Bupropion metabolites and methods of use” (priority 1999, dated 2002).
Where “and” joins values, the source holds several entries; their conditions need not be identical. Identical values can stand only once.

Key:
Assay type in all cases: biochemical
[1] = biological target: T1, dopamine (DA) reuptake, rat corpora striata (Rattus norvegicus, UniProt P23977); assay: Inhibition of dopamine (DA) reuptake, [3H]DA incorporation into synaptosomes; conditions: for DA reuptake Hill coefficient (nH): Hill equation curve fitting; for IC50: [3H]DA 0.2 μCi/mL, 15 min/37° C.
T1 construct: using rat corpora striata as a tissue source; from tissue; host or cells: rat corpora striata synaptosomes
Protocol: (§1) Bupropion metabolites can be screened for their ability to inhibit the reuptake of the neuronal monoamines norepiniephrine (NE), dopaminc (DA), and serotonin (5-HT). […] Other assays known to those skilled in the art may also be used.
(§2) Inhibition of norepincphrinie (NE) reuptake was determined using rat hypothalamus as a tissue source and protryptiline as a reference compound. […] Inhibition of serotonin (5-HT) reuptake was determined using rat brain as a tissue source and imipramine as a reference compound.
(§3) wherein the end products observed were formed by the incorporation of [^3H]NE, [^3H]DA, and [^3H]5-HT into synaptosomes. Radioactivity was determined with a scintillation counter (Topcount, Packard) using a liquid scintillation cocktail (Microscint 0, Packard).
(§4) Raceinic bupropion and the bupropion metabolites were first tested in each assay at 10 μM in duplicate or triplicate. […] In each experiment, the respective reference compound was tested at eight concentrations in duplicate to obtain an inhibition curve in order to validate this experiment.
(§5) IC50 values and Hill coefficients (nH) were determined for the reference compounds and the test compounds (i.e., bupropion and metabolites of bupropion) by non-linear regression analysis of their inhibition curves. These parameters were obtained by Hill equation curve fitting.

[2] = biological target: T2, norepinephrine (NE) reuptake, rat hypothalamus (Rattus norvegicus, UniProt Q63380); assay: Inhibition of norepinephrine (NE) reuptake, [3H]NE incorporation into synaptosomes; conditions: for NE reuptake Hill coefficient (nH): Hill equation curve fitting; for IC50: [3H]NE 0.2 μCi/mL, 20 min/37° C.
T2 construct: using rat hypothalamus as a tissue source; from tissue; host or cells: rat hypothalamus synaptosomes
Protocol: as §1, §2, §3, §4, §5

[3] = biological target: T3, serotonin (5-HT) reuptake, rat brain (Rattus norvegicus, UniProt P31652); assay: Inhibition of serotonin (5-HT) reuptake, [3H]5-HT incorporation into synaptosomes; conditions: [3H]5-HT 0.2 μCi/mL, 15 min/37° C., first tested at 10 μM
T3 construct: using rat brain as a tissue source; from tissue; host or cells: rat brain synaptosomes
Protocol: as §1, §2, §3, §4, §5

T1 sequence (P23977 whole entry): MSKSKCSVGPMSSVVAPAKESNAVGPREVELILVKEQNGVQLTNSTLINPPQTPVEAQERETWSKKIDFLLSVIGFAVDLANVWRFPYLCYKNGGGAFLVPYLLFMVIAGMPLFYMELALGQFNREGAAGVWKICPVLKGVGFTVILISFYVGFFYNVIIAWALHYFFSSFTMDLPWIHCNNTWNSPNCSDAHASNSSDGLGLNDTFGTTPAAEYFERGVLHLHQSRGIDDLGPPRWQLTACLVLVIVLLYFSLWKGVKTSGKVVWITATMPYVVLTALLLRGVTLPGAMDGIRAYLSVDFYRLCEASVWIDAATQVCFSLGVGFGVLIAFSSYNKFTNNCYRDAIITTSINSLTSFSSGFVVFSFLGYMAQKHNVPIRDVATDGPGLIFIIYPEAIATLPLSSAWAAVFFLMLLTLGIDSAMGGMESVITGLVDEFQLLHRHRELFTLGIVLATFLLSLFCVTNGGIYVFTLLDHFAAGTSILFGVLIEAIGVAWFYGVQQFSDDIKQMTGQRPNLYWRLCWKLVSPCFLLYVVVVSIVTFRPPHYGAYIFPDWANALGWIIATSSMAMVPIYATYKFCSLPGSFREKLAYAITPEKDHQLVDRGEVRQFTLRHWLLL
T2 sequence (Q63380 1-617): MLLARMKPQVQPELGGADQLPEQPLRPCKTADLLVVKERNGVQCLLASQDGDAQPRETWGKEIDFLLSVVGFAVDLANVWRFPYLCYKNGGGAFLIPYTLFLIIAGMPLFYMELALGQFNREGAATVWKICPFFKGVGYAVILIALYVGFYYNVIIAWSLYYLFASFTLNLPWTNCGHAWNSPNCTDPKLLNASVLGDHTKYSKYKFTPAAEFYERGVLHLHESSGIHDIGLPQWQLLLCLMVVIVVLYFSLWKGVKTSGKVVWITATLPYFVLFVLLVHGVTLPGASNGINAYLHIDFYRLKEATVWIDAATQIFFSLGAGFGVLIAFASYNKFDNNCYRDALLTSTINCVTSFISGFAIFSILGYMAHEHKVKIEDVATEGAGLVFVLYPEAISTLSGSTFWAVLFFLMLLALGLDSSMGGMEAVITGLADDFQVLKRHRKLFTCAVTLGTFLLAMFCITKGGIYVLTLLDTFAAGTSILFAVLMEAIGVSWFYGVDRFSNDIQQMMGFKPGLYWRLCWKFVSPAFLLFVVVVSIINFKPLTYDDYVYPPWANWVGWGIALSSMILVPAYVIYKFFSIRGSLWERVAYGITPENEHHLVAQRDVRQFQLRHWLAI
T3 sequence (P31652 whole entry): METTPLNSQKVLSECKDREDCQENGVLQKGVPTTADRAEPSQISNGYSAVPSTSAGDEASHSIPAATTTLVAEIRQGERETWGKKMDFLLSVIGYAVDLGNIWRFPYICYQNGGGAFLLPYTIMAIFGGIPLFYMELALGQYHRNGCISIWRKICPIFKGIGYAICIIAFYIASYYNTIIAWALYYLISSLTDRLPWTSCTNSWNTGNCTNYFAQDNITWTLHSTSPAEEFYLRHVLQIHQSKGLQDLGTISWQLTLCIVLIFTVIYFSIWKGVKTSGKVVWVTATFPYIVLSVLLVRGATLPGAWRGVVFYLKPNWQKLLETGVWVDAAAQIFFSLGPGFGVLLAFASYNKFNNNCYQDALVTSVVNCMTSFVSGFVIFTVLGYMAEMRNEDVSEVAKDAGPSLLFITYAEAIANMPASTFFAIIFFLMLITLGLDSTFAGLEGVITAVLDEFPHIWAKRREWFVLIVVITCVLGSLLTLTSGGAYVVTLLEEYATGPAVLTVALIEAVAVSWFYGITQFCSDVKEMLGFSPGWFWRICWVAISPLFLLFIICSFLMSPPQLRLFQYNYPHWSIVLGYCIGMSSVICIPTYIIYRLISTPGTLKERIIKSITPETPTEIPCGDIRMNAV

CC(NC(C)(C)C)C(=O)c1cccc(Cl)c1 (racemic) [BP(±), (±)1-(3-chlorophenyl)-2-[(1,1-dimethylethyl)amino]-1-propanone, reference compound] was tested, and the “DA reuptake Hill coefficient (nH)” value [1] was “(0.9)”, the IC50 [1] was ~294 nM and 294 nM and the “NE reuptake Hill coefficient (nH)” value [2] was “(>3)”. The IC50 [2] was ~746 nM and 746 nM.

For CC1NC(C)(C)COC1(O)c1cccc(Cl)c1 (racemic) [HBP(RS, RS), (RS,RS)-2-(3-chlorophenyl)-2-hydroxy-3,5,5-trimethyl-morpholinol], the “NE reuptake Hill coefficient (nH)” value [2] was “(1.1)” and the IC50 [2] was 756 nM.

For C[C@@H]1NC(C)(C)CO[C@@]1(O)c1cccc(Cl)c1 [HBP(S, S)], the “Inhibition of dopamine reuptake (in words)” value [1] was “does not significantly inhibit dopamine reuptake”, the “DA reuptake Hill coefficient (nH)” value [1] was “(1.0)” and the IC50 [1] was 1400 nM. For the same compound, the IC50 ([1]; listed as (S,S)-hydroxybupropion) was about 1400 nM, the “Inhibition of 5-HT reuptake (in words)” value [3] was “does not measurably inhibit serotonin uptake” and the “NE reuptake Hill coefficient (nH)” value [2] was “(0.8)”. For the same compound, the IC50 [2] was 229 nM.

For CNCCCC1c2ccccc2C=Cc2ccccc21 [protriptyline], the “NE reuptake Hill coefficient (nH)” value [2] was 2.6 and 1.4.
